# System: Pyrenophora teres
# Experiment: Pyrenophora teres test (barley)/curative
# Format: in vivo
# Conditions: curative, application rate of active compound 100 g/ha, evaluation 7 days after inoculation, 0% = control, 100% = no infection
# Procedure: Pyrenophora teres Test (Barley)/Curative [table] To produce a suitable preparation of active compound, 1 part by weight of active compound or active compound combination is mixed with the stated amount of solvent and emulsifier, and the concentrate is diluted with water to the desired concentration. To test for curative activity, young plants are sprayed with a conidia suspension of Pyrenophora teres. The plants remain in an incubation cabin at 20° C. and 100% relative atmospheric humidity for 48 hours. The plants are then sprayed with the preparation of active compound at the stated application rate. The plants are placed in a greenhouse at a temperature of about 20° C. and a relative atmospheric humidity of about 80%. Evaluation is carried out 7 days after the inoculation. 0% means an efficacy which corresponds to that of the control, whereas an efficacy of 100% means that no infection is observed.
row,SMILES,Efficacy in % [%]
1,"CON=C(C(=O)OC)c1ccccc1CO/N=C(\C)c1cccc(C(F)(F)F)c1 [(I), 2-[α-{[(α-methyl-3-trifluoromethylbenzyl)imino]oxy}-o-tolyl]glyoxylic acid methyl ester O-methyl oxime]",56
2,"OC(Cc1ccccc1Cl)(Cn1nc[nH]c1=S)C1(Cl)CC1 (stereo not drawn) [(II), 2-[2-(1-chlorocyclopropyl)-3-(2-chlorophenyl)-2-hydroxypropyl]-2,4 dihydro[1,2,4]triazole-3-thione]",56
3,"CON=C(C1=NOCCO1)c1ccccc1Oc1ncnc(Oc2ccccc2Cl)c1F [(III), 3-[1-[2-(4-<2-chlorophenoxy>-5-fluoropyrimid-6-yloxy)phenyl]-1-(methox-imino)methyl]-5,6-dihydro-1,4,2-dioxazine]",67
